Structures are written as SMILES. Active and inactive are the calls of the source. The rule behind the calls is not given here.

The data set concerns CCRIS mutagenicity, Ames/micronucleus/aberration tests. As to the kind of experiment: CCRIS mutagenicity studies.
Where [1] appears, read: Test System: AMES SALMONELLA TYPHIMURIUM, Strain/Indicator: TA98, Metabolic Activation: HAMSTER, LIVER, S-9, AROCLOR 1254 (10%), Method: PREINCUBATION
Where [2] appears, read: Test System: AMES SALMONELLA TYPHIMURIUM, Strain/Indicator: TA98, Metabolic Activation: NONE, Method: PREINCUBATION
Where [3] appears, read: Test System: AMES SALMONELLA TYPHIMURIUM, Strain/Indicator: TA98, Metabolic Activation: RAT, LIVER, S-9, AROCLOR 1254 (10%), Method: PREINCUBATION
[4] abbreviates: Test System: AMES SALMONELLA TYPHIMURIUM, Strain/Indicator: TA100, Metabolic Activation: HAMSTER, LIVER, S-9, AROCLOR 1254 (10%), Method: PREINCUBATION
[5] abbreviates: Test System: AMES SALMONELLA TYPHIMURIUM, Strain/Indicator: TA100, Metabolic Activation: NONE, Method: PREINCUBATION
The mark [6] stands for this setting: Test System: AMES SALMONELLA TYPHIMURIUM, Strain/Indicator: TA100, Metabolic Activation: NONE, Method: STANDARD PLATE.
Setting [7] is: Test System: AMES SALMONELLA TYPHIMURIUM, Strain/Indicator: TA100, Metabolic Activation: RAT, LIVER, S-9, AROCLOR 1254 (10%), Method: PREINCUBATION
Where [8] appears, read: Test System: AMES SALMONELLA TYPHIMURIUM, Strain/Indicator: TA100, Metabolic Activation: RAT, LIVER, S-9, AROCLOR 1254, Method: STANDARD PLATE.
Setting [9] is: Test System: AMES SALMONELLA TYPHIMURIUM, Strain/Indicator: TA1535, Metabolic Activation: HAMSTER, LIVER, S-9, AROCLOR 1254 (10%), Method: PREINCUBATION
[10] abbreviates: Test System: AMES SALMONELLA TYPHIMURIUM, Strain/Indicator: TA1535, Metabolic Activation: NONE, Method: PREINCUBATION
The mark [11] stands for this setting: Test System: AMES SALMONELLA TYPHIMURIUM, Strain/Indicator: TA1535, Metabolic Activation: RAT, LIVER, S-9, AROCLOR 1254 (10%), Method: PREINCUBATION
[12] abbreviates: Test System: AMES SALMONELLA TYPHIMURIUM, Strain/Indicator: TA1537, Metabolic Activation: HAMSTER, LIVER, S-9, AROCLOR 1254 (10%), Method: PREINCUBATION
[13] abbreviates: Test System: AMES SALMONELLA TYPHIMURIUM, Strain/Indicator: TA1537, Metabolic Activation: NONE, Method: PREINCUBATION
Where [14] appears, read: Test System: AMES SALMONELLA TYPHIMURIUM, Strain/Indicator: TA1537, Metabolic Activation: RAT, LIVER, S-9, AROCLOR 1254 (10%), Method: PREINCUBATION

Consider `C1=Cc2ccc3nc4ccc5ccccc5c4cc3c2CC1`, for which the mutagenic call runs as follows: (Test System: AMES SALMONELLA TYPHIMURIUM, Strain/Indicator: TA98, Metabolic Activation: GUINEA PIG, LIVER, S-9, 3-METHYLCHOLANTHRENE, Method: STANDARD PLATE) “active; positive”; (Test System: AMES SALMONELLA TYPHIMURIUM, Strain/Indicator: TA100, Metabolic Activation: GUINEA PIG, LIVER, S-9, 3-METHYLCHOLANTHRENE, Method: STANDARD PLATE) “active; positive”.

On to `O.[Al+3].[Al+3].[Na+].[Na+].[O-2].[O-2].[O-2].[O-2].[O-2].[O-2].[Si+4]`, for which the mutagenic call runs as follows: under setting [1], “inactive; negative”; under setting [2], “inactive; negative”; (Test System: AMES SALMONELLA TYPHIMURIUM, Strain/Indicator: TA98, Metabolic Activation: NONE, Method: STANDARD PLATE) “inactive; negative”; under setting [3], “inactive; negative”; (Test System: AMES SALMONELLA TYPHIMURIUM, Strain/Indicator: TA98, Metabolic Activation: RAT, LIVER, S-9, AROCLOR 1254, Method: STANDARD PLATE) “inactive; negative”; under setting [4], “inactive; negative”. Also, the mutagenic call is “inactive; negative” under setting [5]; “inactive; negative” under setting [6]; “inactive; negative” under setting [7]; “inactive; negative” under setting [8]; “inactive; negative” under setting [9]; “inactive; negative” under setting [10]. For the same compound, the mutagenic call was “inactive; negative” (Test System: AMES SALMONELLA TYPHIMURIUM, Strain/Indicator: TA1535, Metabolic Activation: NONE, Method: STANDARD PLATE); “inactive; negative” under setting [11]; “inactive; negative” (Test System: AMES SALMONELLA TYPHIMURIUM, Strain/Indicator: TA1535, Metabolic Activation: RAT, LIVER, S-9, AROCLOR 1254, Method: STANDARD PLATE); “inactive; negative” under setting [12]; “inactive; negative” under setting [13]; “inactive; negative” (Test System: AMES SALMONELLA TYPHIMURIUM, Strain/Indicator: TA1537, Metabolic Activation: NONE, Method: STANDARD PLATE). Further, the mutagenic call reads like this: under setting [14], “inactive; negative”; (Test System: AMES SALMONELLA TYPHIMURIUM, Strain/Indicator: TA1537, Metabolic Activation: RAT, LIVER, S-9, AROCLOR 1254, Method: STANDARD PLATE) “inactive; negative”; (Test System: AMES SALMONELLA TYPHIMURIUM, Strain/Indicator: TA1538, Metabolic Activation: NONE, Method: STANDARD PLATE) “inactive; negative”; (Test System: AMES SALMONELLA TYPHIMURIUM, Strain/Indicator: TA1538, Metabolic Activation: RAT, LIVER, S-9, AROCLOR 1254, Method: STANDARD PLATE) “inactive; negative”; (Test System: E. COLI, Strain/Indicator: WP2, Metabolic Activation: NONE, Method: STANDARD PLATE) “inactive; negative”; (Test System: E. COLI, Strain/Indicator: WP2, Metabolic Activation: RAT, LIVER, S-9, AROCLOR 1254, Method: STANDARD PLATE) “inactive; negative”.

Consider `CCC(C)c1ccccc1O` (stereo unspecified), for which the mutagenic call is, setting by setting: under setting [1], “inactive; negative”; under setting [2], “inactive; negative”; (Test System: AMES SALMONELLA TYPHIMURIUM, Strain/Indicator: TA98, Metabolic Activation: RAT LIVER S-9, PHENOBARBITAL AND BETA-NAPHTHOFLAVONE, Method: PREINCUBATION) “inactive; negative”; under setting [3], “inactive; negative”; under setting [4], “inactive; negative”; under setting [5], “inactive; negative”. The mutagenic call by setting is: (Test System: AMES SALMONELLA TYPHIMURIUM, Strain/Indicator: TA100, Metabolic Activation: RAT LIVER S-9, PHENOBARBITAL AND BETA-NAPHTHOFLAVONE, Method: PREINCUBATION) “inactive; negative”; under setting [7], “inactive; negative”; under setting [9], “inactive; negative”; under setting [10], “inactive; negative”; (Test System: AMES SALMONELLA TYPHIMURIUM, Strain/Indicator: TA1535, Metabolic Activation: RAT LIVER S-9, PHENOBARBITAL AND BETA-NAPHTHOFLAVONE, Method: PREINCUBATION) “inactive; negative”; under setting [11], “inactive; negative”. In addition, the mutagenic call was “inactive; negative” under setting [12]; “inactive; negative” under setting [13]; “inactive; negative” (Test System: AMES SALMONELLA TYPHIMURIUM, Strain/Indicator: TA1537, Metabolic Activation: RAT LIVER S-9, PHENOBARBITAL AND BETA-NAPHTHOFLAVONE, Method: PREINCUBATION); “inactive; negative” under setting [14]; “inactive; negative” (Test System: E.COLI, Strain/Indicator: WP2UVRA/PKM101, Metabolic Activation: NONE, Method: PREINCUBATION); “inactive; negative” (Test System: E.COLI, Strain/Indicator: WP2UVRA/PKM101, Metabolic Activation: RAT LIVER S-9, PHENOBARBITAL AND BETA-NAPHTHOFLAVONE, Method: PREINCUBATION).

`C=C(C#N)C(=O)OC`: the mutagenic call was “inactive; negative” under setting [1]; “inactive; negative” under setting [2]; “inactive; negative” under setting [3]; “active; positive” under setting [4]; “active; positive” under setting [5]; “active; positive” (Test System: AMES SALMONELLA TYPHIMURIUM, Strain/Indicator: TA100, Metabolic Activation: NONE, Method: SPOT TEST). Moreover, the mutagenic call was “active; positive” under setting [6]; “active; positive” under setting [7]; “active; positive” (Test System: AMES SALMONELLA TYPHIMURIUM, Strain/Indicator: TA100, Metabolic Activation: RAT, LIVER, S-9, AROCLOR 1254, Method: SPOT TEST); “active; positive” under setting [8]; “inactive; negative” under setting [9]; “inactive; negative” under setting [10]. In addition, the mutagenic call runs as follows: under setting [11], “inactive; negative”; under setting [12], “inactive; negative”; under setting [13], “inactive; negative”; under setting [14], “inactive; negative”.

On to `CCCCOc1cc2c(c3ccc4ccccc4c13)CCC2=O`, for which the mutagenic call under setting [8] is “inactive; negative”.

For the origin of these results see PubChem BioAssay AID1259407 (Chemical Carcinogenesis Research Information System (CCRIS), 2018).
